Reference: patent publication US20250084097A1, “MACROCYCLIC AMIDE COMPOUNDS AND APPLICATION THEREOF” (Medshine Discovery Inc., priority 2021, published 2025)
Read-outs that look alike come from different tables or passages of the source.

Tests used:
Test in all cases: Cell proliferation inhibition, CellTiter-Glo
Type in all cases: cell-based
[1] = target: Ba/F3-FL-EGFR (L858R) (Homo sapiens, UniProt P00533, L858R, cells depend on it); conditions: 72 hours, read-out: Cell half-maximal inhibition concentration IC50 Ba/F3-FL-EGFR (L858R)
Sequence of Ba/F3-FL-EGFR (L858R) (P00533 whole entry L858R): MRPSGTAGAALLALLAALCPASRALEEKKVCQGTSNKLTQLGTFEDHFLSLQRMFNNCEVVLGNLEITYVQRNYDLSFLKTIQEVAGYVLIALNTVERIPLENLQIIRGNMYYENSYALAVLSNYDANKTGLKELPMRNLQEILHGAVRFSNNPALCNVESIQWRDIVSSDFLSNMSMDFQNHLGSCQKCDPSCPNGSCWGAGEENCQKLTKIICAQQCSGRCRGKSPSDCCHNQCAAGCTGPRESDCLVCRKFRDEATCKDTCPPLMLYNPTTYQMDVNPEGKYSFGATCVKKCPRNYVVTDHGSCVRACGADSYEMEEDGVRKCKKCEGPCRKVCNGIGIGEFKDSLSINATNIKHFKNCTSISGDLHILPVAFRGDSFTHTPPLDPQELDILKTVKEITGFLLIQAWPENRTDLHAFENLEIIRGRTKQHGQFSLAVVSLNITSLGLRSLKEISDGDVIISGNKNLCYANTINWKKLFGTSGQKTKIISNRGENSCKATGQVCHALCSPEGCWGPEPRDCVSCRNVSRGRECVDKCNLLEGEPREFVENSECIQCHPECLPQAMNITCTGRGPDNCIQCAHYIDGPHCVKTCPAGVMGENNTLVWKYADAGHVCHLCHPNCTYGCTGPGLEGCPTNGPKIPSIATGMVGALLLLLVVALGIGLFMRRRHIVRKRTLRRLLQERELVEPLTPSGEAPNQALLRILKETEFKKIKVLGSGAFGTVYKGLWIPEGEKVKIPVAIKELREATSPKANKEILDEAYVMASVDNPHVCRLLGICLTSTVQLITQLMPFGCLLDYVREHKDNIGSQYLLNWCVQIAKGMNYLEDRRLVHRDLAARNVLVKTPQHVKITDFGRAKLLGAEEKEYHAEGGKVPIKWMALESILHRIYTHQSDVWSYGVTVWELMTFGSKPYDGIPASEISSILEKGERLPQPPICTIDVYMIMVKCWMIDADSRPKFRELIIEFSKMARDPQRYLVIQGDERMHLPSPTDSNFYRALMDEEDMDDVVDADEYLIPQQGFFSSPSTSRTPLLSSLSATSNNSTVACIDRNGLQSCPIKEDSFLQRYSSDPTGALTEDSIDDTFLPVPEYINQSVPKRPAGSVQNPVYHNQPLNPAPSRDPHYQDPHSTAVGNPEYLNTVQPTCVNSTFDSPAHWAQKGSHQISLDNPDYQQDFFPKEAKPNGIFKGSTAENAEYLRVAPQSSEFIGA
Description: (§1) AdenosineTri-Phosphate (ATP) is an energy carrier shared by various life activities in nature, and is the smallest unit of energy storage and transfer. The CellTiter-Glo™ living cell assay kit uses luciferase as a detector, and luciferase requires the participation of ATP in the process of luminescence. CellTiter-Glo™ reagent is added to a cell culture medium, and the luminescence value is measured. The light signal is directly proportional to the amount of ATP in the system, and ATP is positively correlated with the number of living cells. Therefore, cell proliferation can be detected by detecting ATP content with the CellTiter-Glo kit. In this assay, the cell lines were Ba/F3-FL-EGFR (L858R/T790M/C797S), Ba/F3-FL-EGFR (WT), Ba/F3-FL-EGFR (L858R), Ba/F3-FL-EGFR (del19-S752-I759), Ba/F3-FL-EGFR (del19-E746-A750/T790M/C797S), Ba/F3-FL-EGFR (L858R/T790M), Ba/F3-FL-EGFR (del19-E746-A750/T790M), Ba/F3-TEL-EGFR (L858R/C797S), Ba/F3-FL-EGFR (del19-E746-A750/C797S) stably transfected cell lines.
(§2) The cell lines were cultured in an incubator at 37° C. and 5% CO2. The cells were periodically passaged, and cells in logarithmic growth phase were taken for plating.
(§3) a) DMSO was used to prepare a 10 mM solution of the compound to be tested, and then the compound to be tested was diluted to 0.3 or 1 mM with DMSO.
(§4) b) Preparation of 1000× compound storage plate (tube): DMSO was used to dilute by 3-fold gradient from the highest concentration to the lowest concentration, with a total of 9 concentrations.
(§5) c) Preparation of 20× compound working solution: 49 μL of cell culture medium was added to a flat-bottomed 96-well transparent drug plate, and 1 μL of compound was pipetted from the 1000× compound storage plate to the cell culture medium of the 96-well transparent drug plate. 1 μL of DMSO was added to the vehicle control. After adding compound or DMSO, the well content was mixed to uniform by aspiration and expelling with pipette.
(§6) a) Cells were stained with trypan blue and viable cells were counted. The cell viability rate was required to be above 90%.
(§7) b) 95 μL of cell suspension (2000 cells/well) was added to each well of the compound detection cell plate, and culture medium without cells (containing 0.1% DMSO) was added to the Min control well.
(§8) c) Dosing in the compound detection cell plate: 5 μL of 20× compound working solution was added to the cell culture plate. 5 μL of DMSO-cell culture mixture was added to the Max control. The final concentration of DMSO was 0.1%.
(§9) d) The culture plate was incubated in an incubator at 37° C., 5% CO2 for 72 hours.
(§10) The following steps were performed according to the instruction of Promega CellTiter-Glo luminescence cell viability detection kit (Promega-G7573). • a) The CellTiter-Glo buffer was thawed and allowed to stand to reach room temperature; • b) CellTiter-Glo substrate was allowed to stand to reach room temperature; • c) CellTiter-Glo buffer was added to CellTiter-Glo substrate in a bottle to dissolve the substrate to formulate CellTiter-Glo working solution; • d) The working solution was vortexed slowly for fully dissolution; • e) The cell culture plates were taken out and allowed to stand for 10 minutes to equilibrate to room temperature; • f) 50 μL (equal to half the volume of cell culture solution in each well) of Cell Titer-Glo working solution was added into each well. • g) The culture plates were shaken on an orbital shaker for 2 minutes to induce cell lysis; • h) The culture plates were left at room temperature for 10 minutes to stabilize the luminescence signal; • i) The luminous signal was detected on the PerkinElmer EnVision®2105 plate reader.
(§11) By PerkinElmer EnVision®2105 reading, the corresponding […] value RLU for each well was yielded.
(§12) Cell proliferation inhibition rate (Inhibition Rate) data were processed using the following formula:
(§13) Inhibition Rate (Inh %)=100−(RLUDrug−RLUMin)/(RLUMax−RLUMin)*100%. […]

[2] = target: Ba/F3-FL-EGFR (L858R/T790M) (Homo sapiens, UniProt P00533, T790M/L858R, cells depend on it)
Description: as §1, §2, §3, §4, §5, §6, §7, §8, §9, §10, §11, §12, §13

[3] = target: Ba/F3-FL-EGFR (WT) (Homo sapiens, UniProt P00533)
Sequence of Ba/F3-FL-EGFR (WT) (P00533 whole entry, change not shown): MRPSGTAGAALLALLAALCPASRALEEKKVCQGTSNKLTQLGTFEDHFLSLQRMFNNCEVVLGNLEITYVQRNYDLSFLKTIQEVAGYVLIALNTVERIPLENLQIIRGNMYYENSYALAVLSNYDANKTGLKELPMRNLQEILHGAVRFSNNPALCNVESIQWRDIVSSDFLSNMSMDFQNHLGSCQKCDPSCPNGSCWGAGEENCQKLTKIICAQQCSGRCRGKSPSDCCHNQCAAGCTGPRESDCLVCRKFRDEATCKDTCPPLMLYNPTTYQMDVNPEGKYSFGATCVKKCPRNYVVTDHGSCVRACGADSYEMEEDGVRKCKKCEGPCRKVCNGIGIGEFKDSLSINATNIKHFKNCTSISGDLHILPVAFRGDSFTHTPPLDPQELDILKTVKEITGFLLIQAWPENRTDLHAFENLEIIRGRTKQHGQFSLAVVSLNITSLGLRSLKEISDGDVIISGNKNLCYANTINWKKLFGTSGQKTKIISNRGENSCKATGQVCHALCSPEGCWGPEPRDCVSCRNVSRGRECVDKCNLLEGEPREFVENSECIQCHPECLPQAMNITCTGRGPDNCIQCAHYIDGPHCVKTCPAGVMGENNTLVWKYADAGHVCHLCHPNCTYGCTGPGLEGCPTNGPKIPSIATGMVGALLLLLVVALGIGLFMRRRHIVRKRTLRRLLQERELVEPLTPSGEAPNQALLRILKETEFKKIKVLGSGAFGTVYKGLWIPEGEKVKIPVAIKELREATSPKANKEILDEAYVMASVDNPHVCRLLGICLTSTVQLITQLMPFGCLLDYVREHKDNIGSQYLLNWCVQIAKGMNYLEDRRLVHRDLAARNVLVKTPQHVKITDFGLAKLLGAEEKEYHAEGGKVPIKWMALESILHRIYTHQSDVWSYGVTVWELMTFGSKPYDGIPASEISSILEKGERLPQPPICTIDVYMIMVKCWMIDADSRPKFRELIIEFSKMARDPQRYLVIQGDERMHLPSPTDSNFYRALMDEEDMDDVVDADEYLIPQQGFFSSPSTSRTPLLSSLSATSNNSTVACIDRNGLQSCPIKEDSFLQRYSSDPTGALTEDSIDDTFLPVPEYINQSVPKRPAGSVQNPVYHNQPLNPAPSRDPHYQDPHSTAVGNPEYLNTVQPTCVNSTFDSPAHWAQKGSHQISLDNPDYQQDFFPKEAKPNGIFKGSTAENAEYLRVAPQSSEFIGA
Description: as §1, §2, §3, §4, §5, §6, §7, §8, §9, §10, §11, §12, §13

[4] = target: Ba/F3-FL-EGFR (del19-E746-A750/T790M) (Homo sapiens, UniProt P00533, DEL746-750/T790M, cells depend on it)
Sequence of Ba/F3-FL-EGFR (del19-E746-A750/T790M) (P00533 with tags, fused parts or gaps DEL746-750/T790M): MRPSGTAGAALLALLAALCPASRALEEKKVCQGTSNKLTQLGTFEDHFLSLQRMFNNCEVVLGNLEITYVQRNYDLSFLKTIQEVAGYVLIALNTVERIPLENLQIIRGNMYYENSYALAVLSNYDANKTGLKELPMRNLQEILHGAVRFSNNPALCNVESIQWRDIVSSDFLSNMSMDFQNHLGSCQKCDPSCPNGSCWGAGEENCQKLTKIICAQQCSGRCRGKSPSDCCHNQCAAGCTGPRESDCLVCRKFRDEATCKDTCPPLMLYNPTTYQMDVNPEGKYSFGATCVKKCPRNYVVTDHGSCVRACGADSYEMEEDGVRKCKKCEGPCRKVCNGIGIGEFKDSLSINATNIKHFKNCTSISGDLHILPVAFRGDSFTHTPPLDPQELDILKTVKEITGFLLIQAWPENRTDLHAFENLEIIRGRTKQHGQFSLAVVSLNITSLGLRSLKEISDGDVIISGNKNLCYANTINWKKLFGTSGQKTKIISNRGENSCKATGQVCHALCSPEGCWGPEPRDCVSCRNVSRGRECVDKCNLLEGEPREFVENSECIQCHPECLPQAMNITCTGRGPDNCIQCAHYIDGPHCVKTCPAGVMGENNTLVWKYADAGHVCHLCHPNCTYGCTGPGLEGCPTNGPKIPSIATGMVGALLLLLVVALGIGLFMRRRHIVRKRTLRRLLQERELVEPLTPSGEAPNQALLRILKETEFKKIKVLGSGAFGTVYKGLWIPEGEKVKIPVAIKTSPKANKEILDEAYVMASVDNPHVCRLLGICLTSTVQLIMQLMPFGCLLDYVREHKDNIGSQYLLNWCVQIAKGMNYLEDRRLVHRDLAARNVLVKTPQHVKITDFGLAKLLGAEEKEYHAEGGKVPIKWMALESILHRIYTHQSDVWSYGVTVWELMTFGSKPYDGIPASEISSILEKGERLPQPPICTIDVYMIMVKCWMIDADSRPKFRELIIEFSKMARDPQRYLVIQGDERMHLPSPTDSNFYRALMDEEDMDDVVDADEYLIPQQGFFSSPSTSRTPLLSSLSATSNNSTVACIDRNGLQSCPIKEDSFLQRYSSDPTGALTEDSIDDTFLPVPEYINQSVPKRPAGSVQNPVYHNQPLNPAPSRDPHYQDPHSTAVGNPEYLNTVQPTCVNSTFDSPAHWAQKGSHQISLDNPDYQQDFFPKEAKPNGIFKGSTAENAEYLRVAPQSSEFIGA
Description: as §1, §2, §3, §4, §5, §6, §7, §8, §9, §10, §11, §12, §13

[5] = target: Ba/F3-FL-EGFR (del19-E746-A750/T790M/C797S) (Homo sapiens, UniProt P00533, DEL746-750/T790M/C797S, cells depend on it); conditions: 72 hours, read-out: Cell half-maximal inhibition concentration IC50 Ba/F3-FL-EGFR (del19-E746-A750/T790M/C797S)
Description: as §1, §2, §3, §4, §5, §6, §7, §8, §9, §10, §11, §12, §13

[6] = target: Ba/F3-FL-EGFR (del19-S752-I759) (Homo sapiens, UniProt P00533, DEL752-759, cells depend on it); conditions: 72 hours, read-out: Cell half-maximal inhibition concentration IC50 Ba/F3-FL-EGFR (del19-S752-I759)
Description: as §1, §2, §3, §4, §5, §6, §7, §8, §9, §10, §11, §12, §13

[7] = target: T1, Ba/F3-TEL-EGFR (L858R/C797S) (Homo sapiens, UniProt P00533, C797S/L858R, cells depend on it)
T1 construct: fused on or other part: TEL (ETV6) N-terminal oligomerising part fused to the EGFR kinase part; P41212 (Transcription factor ETV6)
T1 sequence (P00533 whole entry C797S/L858R, the tested form may be a part): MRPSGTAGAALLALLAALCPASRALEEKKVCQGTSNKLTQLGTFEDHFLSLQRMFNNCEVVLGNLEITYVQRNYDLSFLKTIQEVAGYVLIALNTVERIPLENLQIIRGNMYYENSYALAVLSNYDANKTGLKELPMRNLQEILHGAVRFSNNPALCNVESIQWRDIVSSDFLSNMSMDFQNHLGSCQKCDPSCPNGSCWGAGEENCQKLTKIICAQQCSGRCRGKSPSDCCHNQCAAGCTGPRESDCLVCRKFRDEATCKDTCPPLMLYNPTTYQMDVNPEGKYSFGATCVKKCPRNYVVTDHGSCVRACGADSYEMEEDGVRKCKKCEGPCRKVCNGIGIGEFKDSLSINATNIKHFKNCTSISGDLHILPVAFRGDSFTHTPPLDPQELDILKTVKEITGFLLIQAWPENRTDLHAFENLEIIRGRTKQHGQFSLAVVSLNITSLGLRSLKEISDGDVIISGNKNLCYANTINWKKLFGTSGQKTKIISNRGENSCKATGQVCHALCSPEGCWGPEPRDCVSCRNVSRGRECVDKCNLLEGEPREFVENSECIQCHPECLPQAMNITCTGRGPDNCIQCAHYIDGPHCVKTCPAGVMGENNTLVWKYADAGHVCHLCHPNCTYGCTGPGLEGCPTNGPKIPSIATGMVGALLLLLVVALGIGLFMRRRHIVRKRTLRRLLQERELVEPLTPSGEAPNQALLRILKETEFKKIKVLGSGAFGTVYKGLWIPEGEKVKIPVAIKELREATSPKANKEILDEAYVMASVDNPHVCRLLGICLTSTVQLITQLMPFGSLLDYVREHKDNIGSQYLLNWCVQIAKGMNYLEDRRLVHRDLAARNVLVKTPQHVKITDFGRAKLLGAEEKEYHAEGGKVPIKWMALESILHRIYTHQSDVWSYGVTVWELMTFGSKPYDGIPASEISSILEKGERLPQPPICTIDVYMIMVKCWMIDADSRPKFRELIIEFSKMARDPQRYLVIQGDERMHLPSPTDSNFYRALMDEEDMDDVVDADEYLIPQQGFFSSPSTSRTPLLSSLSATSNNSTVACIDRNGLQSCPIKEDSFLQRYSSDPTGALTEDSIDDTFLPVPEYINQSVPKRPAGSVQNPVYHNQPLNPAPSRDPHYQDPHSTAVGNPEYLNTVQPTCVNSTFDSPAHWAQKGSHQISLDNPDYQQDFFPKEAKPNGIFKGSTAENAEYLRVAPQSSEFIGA
Description: as §1, §2, §3, §4, §5, §6, §7, §8, §9, §10, §11, §12, §13

[8] = 72 hours, read-out: Cell half-maximal inhibition concentration IC50 Ba/F3-FL-EGFR (L858R/T790M)
[9] = 72 hours, read-out: Cell half-maximal inhibition concentration IC50 Ba/F3-FL-EGFR (WT)
[10] = 72 hours, read-out: Cell half-maximal inhibition concentration IC50 Ba/F3-FL-EGFR (del19-E746-A750/T790M)
[11] = 72 hours, read-out: Cell half-maximal inhibition concentration IC50 Ba/F3-TEL-EGFR (L858R/C797S)

SMILES	GI50 [1] [nM]	GI50 [2, 8] [nM]	GI50 [3, 9] [nM]	GI50 [4, 10] [nM]	GI50 [5] [nM]	GI50 [6] [nM]	GI50 [7, 11] [nM]	GI50 ([2]; read-out: Cell half-maximal inhibition concentration IC50 Ba/F3-FL-EGFR (L858R/T790M), 72 hours) [nM]	GI50 ([3]; read-out: Cell half-maximal inhibition concentration IC50 Ba/F3-FL-EGFR (WT), 72 hours) [nM]	GI50 ([4]; read-out: Cell half-maximal inhibition concentration IC50 Ba/F3-FL-EGFR (del19-E746-A750/T790M), 72 hours) [nM]	GI50 ([7]; read-out: Cell half-maximal inhibition concentration IC50 Ba/F3-TEL-EGFR (L858R/C797S), 72 hours) [nM]
Cc1cc2cc(n1)-c1cnn(C)c1OC[C@H]1CC[C@H](C1)CN1/C(=N/C2=O)Nc2ccc(N=S(C)(C)=O)cc21 (single isomer, unassigned) [WX-027A]	39.6	14.3	295	1.9	1.2	12.9	5.2				
Cc1cc2cc(n1)-c1cnn(C)c1OCCC[C@@H](C)CN1/C(=N/C2=O)Nc2ccc(N=S(C)(C)=O)cc21 [WX-006]	18.6	12.9	111	0.8	0.6	15.4	3.1				
Cc1cc2cc(n1)-c1cnn(C)c1OCCC[C@@H](C)CN1/C(=N/C2=O)Nc2ccc(N=S3(=O)CCCC3)cc21 [WX-010 (trifluoroacetate)]	14	10.5	86	0.4	0.8	11.2	3				
Cc1cc2cc(n1)-c1cnn(C)c1OCCC[C@@H](C)CN1/C(=N/C2=O)Nc2ccc(N=S3(=O)CCOCC3)cc21 [WX-013]								12.1	123	0.6	3.1
Cc1cc2cc(n1)-c1cnn(C)c1OCCC[C@@H](C)CN1/C(=N/C2=O)Nc2ccc(N=S(C)(C)=O)c(Cl)c21 [WX-019]	42.2	16.8	303	2.9	1.3	15.6	7.3				
